Values quoted from earlier work, collected in US20170333424A1, “Amorphous Vortioxetine Hydrobromide” (Hexal AKTIENGESELLSCHAFT, priority 2014, published 2017).
Where a name gives a salt, the structure may show the parent alone.

Conditions: class II means high permeability, but low solubility

Question: For `Cc1ccc(Sc2ccccc2N2CCNCC2)c(C)c1` [vortioxetine hydrobromide], which BCS class is on record?
Answer: Its BCS class is “class II”.
